Experimental data from a melting point compilation (Tetko et al.; mined from patent text by program, amines drawn as free bases though some values may be those of a salt).

melting point | SMILES
185 to 186 °C | CCOC(=O)c1ncn(-c2ccc(C(F)(F)F)cc2N)c1C
103 to 111 °C | N#CC1(c2ccccc2)CCC(O)CC1 (stereo unspecified)
152 to 153 °C | CC(C)Oc1c(-c2ccc(S(C)(=O)=O)cc2)cnn(CC(F)(F)F)c1=O
228 to 230 °C | Nc1cc(C(=O)Cn2c(-c3nonc3N)nc3ccccc32)ccc1Cl
150 °C | Cc1cc(C)cc(NCc2ccc3nc(NC4CCNC(CCN5CCOCC5)C4)n(Cc4nc(C)ccc4O)c3c2)c1 (stereo unspecified)
108 to 110 °C | CCOC(=O)CN(N)C(=O)Nc1ccccc1C(=O)C1CCCCC1
57 to 61 °C | CC1(C)C(=O)C(C(=O)Cc2ccc(Cl)cc2)C(=O)C(C)(C)C1=O
243 °C | N#Cc1ccc(NC2CCN(Cc3ccc(C(F)(F)F)cc3)CC2)nn1
208 to 210 °C | CCOC(COC1CC2C3CCC4=CC(=O)CCC4(C)C3(F)C(O)CC2(C)C1(O)C(=O)CO)OCC (stereo unspecified)
82 to 84 °C | COC(=O)NNc1cc(C)cc2c1OC(C)C2 (stereo unspecified)
64 to 66 °C | NCc1ccccc1C(F)(F)C(F)(F)c1ccc(F)cc1
194 to 195 °C | CC1(C)OC(=S)Nc2ccc(-c3sccc3C#N)cc21
81 °C | COc1ccc(C(O)CNC(C)C)s1 (stereo unspecified)
264 to 267 °C | O=C1c2cccc(F)c2-n2c1nc1ccccc1c2=O
172 to 173 °C | N#Cc1ccc2c(c1)nc(/C=C/c1ccccc1)n2-c1ccccn1
194 °C | Cc1ccc(C)c(C(=O)c2c(S(C)(=O)=O)nn(-c3c(Cl)cc(C(F)(F)F)cc3Cl)c2N)c1
220 to 221 °C | CC(=O)c1ccc(Nc2c3ccccc3nc3occc23)cc1
188 to 189 °C | O=C(O)COc1c(Br)cc(C(=O)c2ccc3ccccc3c2)cc1Br
124 to 126 °C | CN1C(=O)C(=O)C(c2ccc(Cl)cc2)Sc2ccccc21 (stereo unspecified)
212 °C | Cc1nc2sccn2c(=O)c1CCN1CCC(NC(=O)c2cc(Cl)c(N)c3c2OCCC3)CC1
153 to 155 °C | O=C1c2ccccc2C(O)(C(F)(F)F)c2ccccc21
229 to 230 °C | CC(C)(C)C(NC(=O)Nc1ccccc1F)NC(=O)c1ccc(Cl)cc1 (stereo unspecified)

melting point | SMILES
261 to 263 °C | O=c1oc2ccc(O)cc2c(O)c1-c1ccccc1
109 to 111 °C | O=c1[nH]c(=O)n(C2OC(CO)C(O)C2O)cc1C(Cl)=CI (stereo unspecified)
115 to 117 °C | CC[C@H](CS[C@@H](CCc1ccccc1C(C)(C)O)c1cccc(C=Cc2ccc3ccc(Cl)cc3n2)c1)C(=O)O
305 to 307 °C | CCCOc1ccccc1C1=NC(=O)C2=NC(S)=NC2=N1
160 to 162 °C | c1ccc(-c2nc(-c3ccc(CN4CCCCCC4)s3)n[nH]2)nc1
108 to 109 °C | COC(=O)C1(C)c2ccccc2-c2ccccc21
179 °C | COc1ncccc1-c1cccc(OC2SCC(OC(C)=O)C(OC(C)=O)C2OC(C)=O)c1 (stereo unspecified)
221 °C | O=C(CCl)Nc1ccc(NC(=O)CCl)c2c1C(=O)c1ccccc1C2=O
100 to 103 °C | Cc1sc2c(c1CCN1CCC(c3noc4cc(F)ccc34)CC1)CCN(C)C2
132 to 135 °C | COc1c2c(c(OC)c(OC)c1OC)CCC(CCOc1ccccn1)CC2
187 °C | CCCCOC(=O)c1ccccc1C(=O)Nc1nc2ccccc2[nH]1
180 to 183 °C | CNC(=O)c1cc2c(OC[C@@H](O)CN3CCC(c4ccc5ccccc5c4)CC3)cccc2n1C
87.8 to 88.7 °C | CSc1cc2ccc(-c3ccccc3)cc2cc1OS(=O)(=O)C(F)(F)F
195 °C | OC1CSC(Oc2ccc(-c3ccnc(F)c3)nc2Cl)C(O)C1O (stereo unspecified)
136 to 140 °C | Cc1cc(C)c(N2c3ccccc3Sc3cc(C=O)ccc32)c(C)c1
169 to 171 °C | CCCCOC(=O)COc1ccc(C(=O)Nc2ccccc2Sc2cc(OC)ccc2-c2nnn[nH]2)cc1
147 to 148 °C | O=C(NC(CCCN1CCN(c2ncc(F)cn2)CC1)c1ccc(F)cc1)c1ccc(F)cc1 (stereo unspecified)
129 to 131 °C | COC(=O)c1ccc2c(c1)ncn2-c1ccc(OC)c(C2CCCC2)c1
72 to 74 °C | O=C(Nc1ccc(Cl)c(C(F)(F)F)c1)N1NC(c2ccccc2)C(c2ccccc2)C1=O (stereo unspecified)
148 to 151 °C | CC(=O)OCc1nccc(OCCCOc2ccc3ncc([N+](=O)[O-])n3n2)c1C
216 °C | O=C1c2ccccc2C(=O)c2oc(-c3ccccc3Cl)nc21
150 to 153 °C | Cc1cc(C(=O)N2Cc3ccc(C(=O)O)n3Cc3ccccc32)ccc1C1=CCCc2ccccc21

melting point | SMILES
136 to 137 °C | COc1ccc(COCc2nc(C(C)C)c(Sc3cc(Cl)cc(Cl)c3)n2C(C)C)cc1
150 °C | O=C1C(=Cc2ccccc2)C(=O)c2ccccc21
> 270 °C | CC(C)Cc1c(Cl)sc2[nH]c(=O)c(=O)[nH]c12
64 to 65 °C | COc1nc(I)cc(C(O)C(C)(C)C)c1C (stereo unspecified)
167 to 168 °C | COc1cc(-c2cccc([N+](=O)[O-])c2)ccc1N
93 to 96 °C | CCCCN(C)S(=O)(=O)C1=C(C)NC(C)=C(C(=O)OCC2CC2)C1c1cccc([N+](=O)[O-])c1 (stereo unspecified)
140 to 141 °C | CC(C)(C)OC(=O)NN(C(=O)OC(C)(C)C)c1ccc(OCC(F)(F)F)cc1
82 to 83 °C | COCOc1cc(CO)n(Cc2ccc(Cl)cc2Cl)n1
235 to 237 °C | CCCC(=O)NC(C)c1nnc(C)[nH]c1=O (stereo unspecified)
101 to 103 °C | CCOC(=O)c1c(C(F)(F)F)nc(C(F)(F)Cl)c(C(=O)OC)c1NN1CCCC1
60 to 61 °C | CCCCCN1CCN(O)C1=O
125 to 126 °C | Cc1c(-c2cccc(OCc3ccccc3)c2)n(Cc2ccc(OCCN3CCCCC3)cc2)c2ccc(OCc3ccccc3)cc12
234 to 238 °C | CC1COc2c(OC3CCN(C)CC3)c(F)cc3c(=O)c(C(=O)O)cn1c23 (stereo unspecified)
160 to 161 °C | O=C(N[C@H]1CCc2c(F)cc(F)cc2C1)C(F)(F)F
143 °C | O=C1OCC(CCO)(c2ccc(Cl)c(Cl)c2)CN1Cc1ccccc1 (stereo unspecified)
185 to 186 °C | CCc1cn(C2CC(O)C(CCC(O)Cc3c(Cl)cccc3Cl)O2)c(=O)[nH]c1=O (mixture of isomers)
172 to 174 °C | Cn1c(C(F)(F)F)cc(=O)n(-c2cc(C=O)c(Cl)cc2F)c1=O
134 to 138 °C | COC(=O)c1ccccc1C1=NC(C)C(=S)N1 (stereo unspecified)
149 to 151 °C | CC(=O)NCc1ccc(-c2ccc([N+](=O)[O-])cc2)o1
87 to 88 °C | CC1(c2ccccc2)OCC(OCc2ccccc2)CO1 (stereo unspecified)
109 to 110 °C | COC(=O)N(CCO)c1ccc(OCc2nc3ccccc3s2)cc1C
170 to 172 °C | Nc1ccc(S(=O)c2ccc(Sc3ccc(Cl)c([N+](=O)[O-])c3)cc2)cc1[N+](=O)[O-] (stereo unspecified)

SMILES | melting point
Cc1c(C)c2c(c(C)c1N)CC(C)(CN1CCC(Nc3ccccc3)CC1)O2 (stereo unspecified) | 116 to 118 °C
NC(Cc1ccccc1)c1ccc(Cl)cc1 (stereo unspecified) | 35 to 36 °C
CC(=C(F)F)c1cn(-c2c(Cl)cc(C(F)(F)F)cc2Cl)nc1C#N | 66 to 68 °C
c1cnc2cc(C34CCCN3CCC4)oc2c1 | 39 to 41 °C
OC1CC2(CCNC2)c2ccc(Cl)c(Cl)c21 (stereo unspecified) | 167 to 170 °C
